The source of these data is patent US11242350B2, “Spirocyclic ROR-gamma modulators” (Escalier Biosciences B.V., priority 2018, dated 2022).

Bounds are passed on as bounds.

Chain of RORγt (P51449 269-508): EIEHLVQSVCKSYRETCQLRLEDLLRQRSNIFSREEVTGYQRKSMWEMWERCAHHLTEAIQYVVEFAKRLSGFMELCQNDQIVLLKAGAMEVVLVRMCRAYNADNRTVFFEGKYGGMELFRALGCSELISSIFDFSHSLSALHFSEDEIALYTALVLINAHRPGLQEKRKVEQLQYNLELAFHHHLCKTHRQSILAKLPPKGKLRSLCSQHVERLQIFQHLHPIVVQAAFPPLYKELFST

This test addresses RORγt (Homo sapiens (Human), UniProt P51449). As to the kind of experiment: Gal4 ligand binding assay (RORγt Gal fusion luciferase reporter assay in HEK293T cells). The format is cell-based. The conditions noted are these: RORγt inverse agonists in RORγt Gal fusion assay. How it is done: The N-terminal DNA binding domains (DBD) of the native RORγ and RORγt receptors have been substituted with that of the yeast GAL4-DBD and stably transfected in HEK293T cells that also stably express luciferase under the regulation by upstream activation sequence of yeast Gal4. These cells constitutively express high level RORγ activity due to binding of endogenous co-factors. Both agonist and inverse agonist activity can be detected. The assay was performed according to kit manufacturer's instructions as follows. 10 mM compound stocks were diluted serially 1:3 with DMSO and further diluted with provided media to generate 10 titration points from 60 μM to 3 nM. These treatment conditions were added to the plates as 2× media in 100 μL volume. Each plate includes a positive control with 10 titration points as well as 6 negative control wells with vehicle only, with final DMSO concentration of 0.2%. RORγ reporter cells were rapidly thawed and added to the plates in 100 μL volume. The plates were incubated for 24 h in a 37° C. humidified 5% CO2 incubator. Media was removed before the addition of room temperature luciferous detection substrate. After 5 minute incubation, relative light units (RLUs) were quantified using a plate reading luminometer. Data was normalized to […] with only 0.2%0DMSO. Before establishing internal controls, ursolic acid was used as control.
Consider `CCc1cc(CN2CC3(CCN(S(C)(=O)=O)C3)C2)ccc1-c1ccc(C(O)(C(F)(F)F)C(F)(F)F)cc1` [Example 6, 2-(2′-ethyl-4′-((6-(methylsulfonyl)-2,6-diazaspiro[3.4]octan-2-yl)methyl)-[1,1′-biphenyl]-4-yl)-1,1,1,3,3,3-hexafluoropropan-2-ol], for which the IC50 was 50 to 250 nM.
On to `CS(=O)(=O)N1CC2(CN(Cc3cc(F)c(-c4ccc(C(O)(C(F)(F)F)C(F)(F)F)cc4F)c(C4CC4)c3F)C2)C1` [Example 91, 2-(2′-cyclopropyl-2,3′,6′-trifluoro-4′-((6-(methylsulfonyl)-2,6-diazaspiro[3.3]heptan-2-yl)methyl)-[1,1′-biphenyl]-4-yl)-1,1,1,3,3,3-hexafluoropropan-2-ol], for which the IC50 was below 50 nM.
Compound `Cc1cc(C(O)(C(F)(F)F)C(F)(F)F)ccc1-c1ccc(CN2CCC3(C2)CS(=O)(=O)C3)cc1C(C)C` [Example 11, 6-((4′-(1,1,1,3,3,3-hexafluoro-2-hydroxypropan-2-yl)-2-isopropyl-2′-methyl-[1,1′-biphenyl]-4-yl)methyl)-2-thia-6-azaspiro[3.4]octane 2,2-dioxide] registered a half-maximal inhibitory concentration (IC50) below 50 nM.
The figure for `CCc1cc(CN2CC3(CCS(=O)(=O)CC3)C2)ccc1-c1ccc(C(O)(C(F)(F)F)C(F)(F)F)cc1` [Example 3, 2-((2-ethyl-4′-(1,1,1,3,3,3-hexafluoro-2-hydroxypropan-2-yl)-[1,1′-biphenyl]-4-yl)methyl)-7-thia-2-azaspiro[3.5]nonane 7,7-dioxide] is below 50 nM; for `Cc1cc(C(O)(C(F)(F)F)C(F)(F)F)ccc1-c1cccc(N2CC3(C2)CN(S(C)(=O)=O)C3)n1` [Example 67, 1,1,1,3,3,3-hexafluoro-2-(3-methyl-4-(6-(6-(methylsulfonyl)-2,6-diazaspiro[3.3]heptan-2-yl)pyridin-2-yl)phenyl)propan-2-ol] it is above 250 nM; for `CN(C)C(=O)c1cc(CN2CC3(C2)CN(S(C)(=O)=O)C3)ccc1-c1ccc(C(O)(C(F)(F)F)C(F)(F)F)cc1` [Example 55, 4′-(1,1,1,3,3,3-hexafluoro-2-hydroxypropan-2-yl)-N,N-dimethyl-4-((6-(methylsulfonyl)-2,6-diazaspiro[3.3]heptan-2-yl)methyl)-[1,1′-biphenyl]-2-carboxamide] it is above 250 nM.
`CCc1nc(CN2CC3(C2)CN(S(C)(=O)=O)C3)ccc1-c1ccc(C(O)(C(F)(F)F)C(F)(F)F)cc1C` [Example 73, 2-(4-(2-ethyl-6-((6-(methylsulfonyl)-2,6-diazaspiro[3.3]heptan-2-yl)methyl)pyridin-3-yl)-3-methylphenyl)-1,1,1,3,3,3-hexafluoropropan-2-ol] displayed an IC50 above 250 nM.
The figure for `CCc1cc(C(O)(C(F)(F)F)C(F)(F)F)ccc1-c1c(F)cc(CN2CC3(C2)CN(S(C)(=O)=O)C3)c(F)c1C1CC1` [Example 90, 2-(2′-cyclopropyl-2-ethyl-3′,6′-difluoro-4′-((6-(methylsulfonyl)-2,6-diazaspiro[3.3]heptan-2-yl)methyl)-[1,1′-biphenyl]-4-yl)-1,1,1,3,3,3-hexafluoropropan-2-ol] is below 50 nM.
The figure for `CC(C)c1c(F)c(CN2CC3(C2)CN(S(C)(=O)=O)C3)cc(F)c1-c1ccc(C(O)(C(F)(F)F)C(F)(F)F)cc1F` [Example 86, 1,1,1,3,3,3-hexafluoro-2-(2,3′,6′-trifluoro-2′-isopropyl-4′-((6-(methylsulfonyl)-2,6-diazaspiro[3.3]heptan-2-yl)methyl)-[1,1′-biphenyl]-4-yl)propan-2-ol] is below 50 nM; for `CCc1c(F)c(CN2CC3(C2)CN(S(C)(=O)=O)C3)cc(F)c1-c1ccc(C(O)(C(F)(F)F)C(F)(F)F)cc1` [Example 69, 2-(2′-ethyl-3′,6′-difluoro-4′-((6-(methylsulfonyl)-2,6-diazaspiro[3.3]heptan-2-yl)methyl)-[1,1′-biphenyl]-4-yl)-1,1,1,3,3,3-hexafluoropropan-2-ol] it is below 50 nM.
As for `CC(C)c1c(-c2ccc(C(O)(C(F)(F)F)C(F)(F)F)cc2)cc(F)c(CN2CC3(C2)CN(S(C)(=O)=O)C3)c1F` [Example 8, 2-(3′,5′-difluoro-2′-isopropyl-4′-((6-(methylsulfonyl)-2,6-diazaspiro[3.3]heptan-2-yl)methyl)-[1,1′-biphenyl]-4-yl)-1,1,1,3,3,3-hexafluoropropan-2-ol], the IC50 was below 50 nM.
Consider `CCc1cc(CN2CC3(CCS(=O)(=O)C3)C2)ccc1-c1ccc(C(O)(C(F)(F)F)C(F)(F)F)cc1` [Example 24, 2-((2-ethyl-4′-(1,1,1,3,3,3-hexafluoro-2-hydroxypropan-2-yl)-[1,1′-biphenyl]-4-yl)methyl)-6-thia-2-azaspiro[3.4]octane 6,6-dioxide], for which the IC50 lay in the range of 50 to 250 nM.
Take `CCc1cc(CN2CC3(C2)CN(S(C)(=O)=O)C3)ccc1-c1ccc(C(O)(C(F)(F)F)C(F)(F)F)cn1` [Example 63, 2-(6-(2-ethyl-4-((6-(methylsulfonyl)-2,6-diazaspiro[3.3]heptan-2-yl)methyl)phenyl)pyridin-3-yl)-1,1,1,3,3,3-hexafluoropropan-2-ol]: the IC50 is 50 to 250 nM.
In the case of `CC(C)(C)c1cc(CN2CC3(C2)CN(S(C)(=O)=O)C3)ccc1-c1ccc(C(O)(C(F)(F)F)C(F)(F)F)cc1` [Example 23, 2-(2′-(tert-butyl)-4′-((6-(methylsulfonyl)-2,6-diazaspiro[3.3]heptan-2-yl)methyl)-[1,1′-biphenyl]-4-yl)-1,1,1,3,3,3-hexafluoropropan-2-ol] it was below 50 nM.
The figure for `COc1cc(CN2CC3(C2)CN(S(C)(=O)=O)C3)ccc1-c1ccc(C(O)(C(F)(F)F)C(F)(F)F)cc1C` [Example 57, 1,1,1,3,3,3-hexafluoro-2-(2′-methoxy-2-methyl-4′-((6-(methylsulfonyl)-2,6-diazaspiro[3.3]heptan-2-yl)methyl)-[1,1′-biphenyl]-4-yl)propan-2-ol] is below 50 nM.
Compound `CC(C)c1c(F)c(CN2CC3(C2)CN(S(C)(=O)=O)C3)cc(F)c1-c1ccc(C(O)(C(F)(F)F)C(F)(F)F)cc1` [Example 7, 2-(3′,6′-difluoro-2′-isopropyl-4′-((6-(methylsulfonyl)-2,6-diazaspiro[3.3]heptan-2-yl)methyl)-[1,1′-biphenyl]-4-yl)-1,1,1,3,3,3-hexafluoropropan-2-ol] gave an IC50 below 50 nM.
For the compound `CC(C)c1c(F)c(CN2CCC3(C2)CN(S(C)(=O)=O)C3)cc(F)c1-c1ccc(C(O)(C(F)(F)F)C(F)(F)F)cc1` [Example 74, 2-(3′,6′-difluoro-2′-isopropyl-4′-((2-(methylsulfonyl)-2,6-diazaspiro[3.4]octan-6-yl)methyl)-[1,1′-biphenyl]-4-yl)-1,1,1,3,3,3-hexafluoropropan-2-ol], the 50% inhibitory concentration (IC50) was in the range of 50 to 250 nM.
The figure for `CS(=O)(=O)N1CC2(CN(Cc3ccc(-c4ccc(C(O)(C(F)(F)F)C(F)(F)F)cc4)c(C4CC4)c3)C2)C1` [Example 42, 2-(2′-cyclopropyl-4′-((6-(methylsulfonyl)-2,6-diazaspiro[3.3]heptan-2-yl)methyl)-[1,1′-biphenyl]-4-yl)-1,1,1,3,3,3-hexafluoropropan-2-ol] is below 50 nM; for `CCc1cc(CN2CC3(C2)CN(S(C)(=O)=O)C3)ccc1-c1ccc(C(O)(C(F)(F)F)C(F)(F)F)cc1C` [Example 39, 2-(2′-ethyl-2-methyl-4′-((6-(methylsulfonyl)-2,6-diazaspiro[3.3]heptan-2-yl)methyl)-[1,1′-biphenyl]-4-yl)-1,1,1,3,3,3-hexafluoropropan-2-ol] it is below 50 nM; for `Cc1cc(C(O)(C(F)(F)F)C(F)(F)F)ccc1-c1ccc(CN2CC3(C2)CS(=O)(=O)C3)cc1C(C)C` [Example 12, 6-((4′-(1,1,1,3,3,3-hexafluoro-2-hydroxypropan-2-yl)-2-isopropyl-2′-methyl-[1,1′-biphenyl]-4-yl)methyl)-2-thia-6-azaspiro[3.3]heptane 2,2-dioxide] it is 50 to 250 nM.
The figure for `CC(C)c1cc(CN2CC3(C2)CN(S(C)(=O)=O)C3)c(F)c(F)c1-c1ccc(C(O)(C(F)(F)F)C(F)(F)F)cc1` [Example 14, 2-(2′,3′-difluoro-6′-isopropyl-4′-((6-(methylsulfonyl)-2,6-diazaspiro[3.3]heptan-2-yl)methyl)-[1,1′-biphenyl]-4-yl)-1,1,1,3,3,3-hexafluoropropan-2-ol] is below 50 nM.
In the case of `CCc1cc(CN2CC3(C2)CN(S(C)(=O)=O)C3)ccc1-c1ccc(C(O)(C(F)(F)F)C(F)(F)F)cc1C#N` [Example 65, 2′-ethyl-4-(1,1,1,3,3,3-hexafluoro-2-hydroxypropan-2-yl)-4′-((6-(methylsulfonyl)-2,6-diazaspiro[3.3]heptan-2-yl)methyl)-[1,1′-biphenyl]-2-carbonitrile] it was below 50 nM; in that of `CC(C)c1cc(CN2CC3(C2)CN(S(C)(=O)=O)C3)c(F)cc1-c1ccc(C(O)(C(F)(F)F)C(F)(F)F)cc1Cl` [Example 81, 2-(2-chloro-5′-fluoro-2′-isopropyl-4′-((6-(methylsulfonyl)-2,6-diazaspiro[3.3]heptan-2-yl)methyl)-[1,1′-biphenyl]-4-yl)-1,1,1,3,3,3-hexafluoropropan-2-ol], below 50 nM.
`CCc1cc(CN2CC3(C2)CN(S(C)(=O)=O)C3)ncc1-c1ccc(C(O)(C(F)(F)F)C(F)(F)F)cc1C` [Example 64, 2-(4-(4-ethyl-6-((6-(methylsulfonyl)-2,6-diazaspiro[3.3]heptan-2-yl)methyl)pyridin-3-yl)-3-methylphenyl)-1,1,1,3,3,3-hexafluoropropan-2-ol] displayed a half-maximal inhibitory concentration (IC50) below 50 nM.
